Laboratory results from a compilation of properties of binary mixtures (doi:10.1016/j.molliq.2020.112507).

Experiment: xn = mol fraction of the nth substance listed
Details: 100 kPa

CCCC[n+]1ccn(C)c1.COS(=O)(=O)[O-] + CCCC#N
x1 = 1
Details	speed of sound [m/s]
298.15 K	1654.9
308.15 K	1630.2
313.15 K	1618.2

CCCC#N + CCCC[n+]1ccn(C)c1.COS(=O)(=O)[O-]
speed of sound [m/s]
Details	x2 = 0	x2 = 0.1117	x2 = 0.2128	x2 = 0.3714	x2 = 0.4263	x2 = 0.5115	x2 = 0.6345	x2 = 0.7161	x2 = 0.8065	x2 = 0.9072
298.15 K	1279.9	–	1395.9	1468.7	1490.6	1521.4	1559.7	–	1605.3	1630.9
303.15 K	1260.6	1323.5	1378.9	1452.9	1475.5	–	1545.8	1568.8	–	1618.2
308.15 K	1241	1305.2	1361.8	1437.1	1460.3	–	1531.9	–	1579.1	1605.5
313.15 K	1221.2	1286.9	1344.7	1421.4	–	1477.3	–	1541.4	1566	1592.8
